Measured values taken from patent US6809111B2, “Prodrugs of COX-2 inhibitors” (Pharmacia Corporation, priority 2001, dated 2004).

Experiments:
[1] = tested on: carrageenan-induced inflammatory response in air pouch; test: Air-pouch model of inflammation (carrageenan); format: in vivo; details: male Lewis rats
Method: Male Lewis rats (175-200 g) were used. Air cavities were produced by subcutaneous injection of 20 mL of sterile air into the intrascapular area of the back. An additional 10 mL of air was injected into the cavity every 3 days to keep the space open. Seven days after the initial air injection, 2 mL of a 1% solution of carrageenan (Sigma) dissolved in saline was injected directly into the pouch to produce an inflammatory response. The volume of exudate was measured […]. The differential cell count was determined by Wright-Giemsa staining. PGE2 and 6-keto-PGF1α were determined in the pouch exudates by specific ELISAs (Cayman Chemicals, Ann Arbor, Mich.).

| Structure (SMILES) | AIR POUCH TEST % Inhibition @ 20 mg/kg body weight [1] [%] | melting point [°C] |
| --- | --- | --- |
| Cc1ccc(-c2cc(C(F)(F)F)nn2-c2ccc(S(=O)(=O)N(CCO)CCO)cc2)cc1 [Example 4, N,N-bis(2-hydroxyethyl)-4-[5-(4-methylphenyl)-3-(trifluoromethyl)-1H-pyrazol-1-yl]benzenesulfonamide] | 10 | 79.1 |
| Cc1ccc(-c2cc(C(F)(F)F)nn2-c2ccc(S(=O)(=O)NCCO)cc2)cc1 [Example 3, N-(2-hydroxyethyl)-4-[5-(4-methylphenyl)-3-(trifluoromethyl)-1H1-pyrazol-1-yl]benzenesulfonamide] | 59 | 57.8 |
